From US9387170B2, “Drug having regulatory cell ligand contained in liposome” (RIKEN, priority 2004, dated 2016)

What was measured:
[1] = test system: immunopotentiation and anti-tumor effects; conditions: cited from earlier work
[2] = test system: spleen whole cells; experiment: Cytokine production by Lipo-αGC in spleen whole cells; type: cell-based, C57BL/6 mouse
Protocol: (§1) Spleen whole cells at 2×10^5 from C57BL/6 mouse were suspended in 200 μL of 10% fetal calf serum (FCS)-containing RPMI medium to which 100 ng/mL Lipo-(−), Lipo-αGC or α-galactosyl ceramide aqueous solution (α-GalCer) had been added, then the cell suspension was added to a 96-well U bottom culture plate, and cultured in the incubator containing 5% CO2 at 37° C. for 2 days. The levels of IFN-γ, IL-4 and IL-10 produced in the culture supernatant were measured by ELISA (FIG. 7 upper panels). The levels of IFN-γ and IL-4 were equivalent in Lipo-αGC group and αGalCer group, but the level of IL-10 in the Lipo-α group was 5 times higher than that in the α-GalCer group. When the same experiments were performed in the presence of anti-CD1d neutralization antibody (1B1, BD Bioscience PharMingen) at a final concentration of 10 μg/mL or using spleen whole cells from Vα14-NKT cell-deficient mouse (C57BL/6 background), IFN-γ, IL-4 and IL-10 in the culture supernatant were not detected (FIG. 7, lower panels).

[3] = test system: IgE antibody production; conditions: administered to C57BL/6 mice; cited from earlier work
[4] = test system: spleen dendritic cells (CD45RB/CD11c); experiment: Analysis of dendritic cells in spleen of administered mice by flow cytometry; type: in vivo, BALB/c mice; conditions: 2 μg/mouse intraperitoneal, after 3 days
Protocol: Saline, α-GalCer, Lipo-(−) or Lipo-αGC (2 μg/mouse) was intraperitoneally administered in BALB/c mice, and after 3 days, the spleen was removed. Collagenase D (1 mg/mL, Roche) was injected into the spleen, which was then incubated in the CO2 incubator for 45 minutes. Subsequently, cells were collected from the spleen, suspended in 3 mL of HistoDenz (14.1%, SIGMA-Aldrich), and then the X-VIVO 15 medium (CAMBREX Bio Science Walkerville, Inc.) containing 50 μM 2-mercaptoethanol (2ME) was overlaid thereon. After centrifuging at 1,500 rpm for 5 minutes, the cells in the intermediate layer were collected. The cells were washed with the X-VIVO 15 medium containing 50 μm 2ME and 10% FCS, and suspended in phosphate buffered saline (PBS) containing 0.5% FCS. Biotinylated anti-CD3, -CD11b, -CD19, -CD49b, -Gr-1, -TER-119 and -B220 antibodies (all from BD Bioscience Pharmingen) were added to the cell suspension. The cells were incubated at 10° C. for 20 minutes, then washed once with PBS containing 0.5% FCS, and subsequently streptoavidin (SA)-conjugated magnetic beads (Miltenyi) were added thereto. […] The resulting cells were stained with PE-labeled anti-CD11c antibody (BD Bioscience Pharmingen) and APC-labeled anti-CD45RB antibody (BD Bioscience Pharmingen), and analyzed by flow cytometry. […]

[5] = test system: NKT cells; conditions: cited from earlier work
[6] = test system: spleen CD4+ T cells; experiment: T cell activation ability using BDF1 mice (MTT proliferation of spleen CD4+ T cells); type: cell-based; conditions: 2 μg/mouse intraperitoneal, all DNP-OVA concentrations examined, 48 hours
Protocol: Saline, α-GalCer, Lipo-(−) or Lipo-αGC (2 μg/mouse) was intraperitoneally administered in BDF1 mice, after 3 days, which were primarily immunized with DNP-OVA and alum. After 7 days, the spleen was removed, and CD4^+ T cells were prepared using magnetic microbeads (Miltenyi). Subsequently, antigen presenting cells were prepared by irradiating spleen whole cells from the normal BDF1 mouse with radiation of 20 Gy. The CD4^+ T cells at 2×10^5 and the antigen presenting cells at 2×10^5 pulsed with DNP-OVA suspended in 200 μL of the medium were placed in one well of the 96-well U bottom culture plate, and cultured in the incubator containing 5% CO2 at 37° C. After 48 hours, cell proliferation was assayed by MTT method (Promega #G4000).

[7] = test system: antibody production; experiment: In vivo antibody production system using BDF1 mice; conditions: 2 μg/mouse intraperitoneal, days 0, 14, 55 and 64
Protocol: Saline, α-GalCer, Lipo-(−) or Lipo-αGC (2 μg/mouse) was intraperitoneally administered in BDF1 mice (C57BL/6×DBA/2F1) (5 mice/group), after 3 days (day 0), which were primarily immunized with DNP-OVA and alum, and further the mice was boosted with DNP-OVA alone on the 55th day (day 55) after the primary immunization. On days 0, 14, 55 and 64, the blood was collected from the orbital venous plexus, and antibody titers of ant-DNP-IgE, anti-DNP-IgG1, anti-DNP-IgG2a, and the levels of total IgE, total IgG1 and total IgG2a in the plasma were measured by ELISA.

[8] = test system: IgE antibody production; conditions: same experiment, mice deleting the Vα14-NKT cells; cited from earlier work
[9] = test system: spleen whole cells from Vα14-NKT cell-deficient mouse; experiment: Cytokine production in spleen whole cells from Vα14-NKT cell-deficient mouse; type: cell-based, Vα14-NKT cell-deficient mouse (C57BL/6 background); conditions: 100 ng/mL, 2 days
Protocol: as §1

[10] = test system: antibody production; experiment: In vivo antibody production system using IL-10-deficient mice; parameters: species or system IL-10-deficient mice with C57BL/6 background; conditions: 2 μg/mouse intraperitoneal 3 days before immunization, day 14
Protocol: Saline, α-GalCer, Lipo-(−) or Lipo-αGC (2 μg/mouse) was intraperitoneally administered in C57BL/6 mice (5 mice/group), after 3 days, which were primarily immunized with DNP-OVA and alum. On the 14th day after the primary immunization, the blood was collected from the orbital venous plexus, and antibody titers of ant-DNP-IgG1, anti-DNP-IgE and anti-DNP-IgG2a in the plasma were measured by ELISA. […] The same experiment was performed using the IL-10-deficient mice with C57BL/6 background.

[11] = test system: type I diabetes model; conditions: administered to NOD mice; cited from earlier work
[12] = test system: spleen CD11c+ DC; experiment: In vitro activity of ligand-containing liposome for dendritic cells: cytokine production; type: cell-based, BALB/c or C57BL/6 mouse; conditions: liposome composition 1 μg/mL, 48 hours, ELISA
Protocol: Collagenase D (1 mg/mL, Roche) was injected into spleen from BALB/c or C57BL/6 mouse, which was then incubated in a CO2 incubator for 45 minutes. Subsequently, cells were collected from the spleen, suspended in 3 mL of HistoDenz (14.1%, SIGMA), and then X-VIVO 15 (Takara Bio) containing 50 μM 2-mercaptoethanol (2ME) was overlaid thereon. After centrifuging at 1,500 rpm for 5 minutes, the cells in an intermediate layer were collected and incubated in X-VIVO 15 medium containing 50 μM 2ME, 0.5% fetal calf serum and 20 ng/mL rmGM-CSF (Pharmingen) in the CO2 incubator for one and a half hours. After pipetting gently, the suspended cells were removed, the X-VIVO 15 medium containing 50 μM 2ME, 0.5% fetal calf serum and 20 ng/mL rmGM-CSF (Pharmingen) was added, and the cells were incubated in the CO2 incubator for 18 hours. The suspended cells were collected, and the cells bound to anti-CD11c antibody-magnetic microbeads (Miltenyi) were collected to render spleen CD11c^+ DC. The CD11c^+ DC at 1×10^4 cells were suspended in 200 μL of RPMI medium containing 10% fetal calf serum in a 96-well round bottom microtiter plate, the liposome composition at a final concentration of 1 μg/mL was added thereto, and the plate was incubated in the incubator containing 5% CO^2 at 37° C. After 48 hours, culture supernatants were collected, and levels of IFN-α, IL-10 and IL-12 were measured by ELISA (FIGS. 1 and 2). The levels of IL-10 and IFN-α were high whereas the levels of IL-12 were low in Lipo-β and Lipo-Imq groups. Conversely, in Lipo-β-CpG and Lipo-Imq-CpG groups, the levels of IL-10 and IFNα were low whereas the levels of IL-12 were high. […] In the same evaluation method, the production levels of IL-10 in CD11c^+ DC by Lipo-Imq-βGC were measured.

[13] = test system: IgE; conditions: patients with atopic asthma; cited from earlier work
[14] = in the presence of anti-CD1d neutralization antibody 10 μg/mL

IgE, sequence (P01854 1-425 limits assumed): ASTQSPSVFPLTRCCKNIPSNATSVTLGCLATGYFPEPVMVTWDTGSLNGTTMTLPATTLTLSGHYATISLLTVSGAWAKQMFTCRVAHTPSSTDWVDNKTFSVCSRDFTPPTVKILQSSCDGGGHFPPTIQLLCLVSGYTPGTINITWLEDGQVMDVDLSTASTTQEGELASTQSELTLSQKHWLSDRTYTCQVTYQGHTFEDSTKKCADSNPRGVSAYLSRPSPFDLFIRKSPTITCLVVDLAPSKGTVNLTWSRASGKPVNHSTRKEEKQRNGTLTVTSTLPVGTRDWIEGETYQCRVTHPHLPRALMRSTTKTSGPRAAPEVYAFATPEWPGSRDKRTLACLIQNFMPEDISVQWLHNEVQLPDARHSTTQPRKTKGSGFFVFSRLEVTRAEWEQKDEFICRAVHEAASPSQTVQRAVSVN

β-glycosyl ceramide
activity compared with immunopotentiation and anti-tumor effects of α-galactosyl ceramide compound [1]: much lower activity

CCCCCCCCCCCCCCCCCCCCCCCCCC(=O)N[C@@H](CO[C@H]1O[C@H](CO)[C@H](O)[C@H](O)[C@H]1O)[C@H](O)[C@H](O)CCCCCCCCCCCCCC [α-GalCer, α-Galactosyl ceramide]
level of IFN-γ in culture supernatant, Lipo-αGC group versus αGalCer group ([2]; 100 ng/mL, 2 days, ELISA): equivalent
level of IL-4 in culture supernatant, Lipo-αGC group versus αGalCer group ([2]; 100 ng/mL, 2 days, ELISA): equivalent
IFN-γ in the culture supernatant [2, 14]: not detected
IL-4 in the culture supernatant [2, 14]: not detected
IL-10 in the culture supernatant [2, 14]: not detected
production of IgE antibody induced by DNP-OVA and alum [3]: inhibited
number of CD45RBlowCD11chigh cells in the spleen [4]: more than in the mouse administered with Lipo-αGC
ratio of CD45RBhighCD11clow cells versus ratio of CD45RBlowCD11chigh cells [4]: reversed
cytokine production of both IFN-γ and IL-4 [5]: induces
proliferation of CD4+ T cells in response to DNP-OVA [6]: highly proliferated
changes of total IgG1, Lipo-αGC group versus α-GalCer or Lipo-(−) group [7]: nearly equivalent
changes of total IgG2a, Lipo-αGC group versus α-GalCer or Lipo-(−) group [7]: nearly equivalent
production of IgE antibody [8]: not inhibited
IFN-γ in the culture supernatant [9]: not detected
IL-4 in the culture supernatant [9]: not detected
IL-10 in the culture supernatant [9]: not detected
inhibitory effect on the antibody production [10]: no inhibitory effect
symptoms in type I diabetes model [11]: symptomatic improvement was observed

ceramide β-D-galactoside [β-GalCer]
activity compared with immunopotentiation and anti-tumor effects of α-galactosyl ceramide compound [1]: much lower activity
level of IFN-α in culture supernatant [12]: not detected or was very low
level of IL-10 in culture supernatant [12]: not detected or was very low
level of IL-12 in culture supernatant [12]: not detected or was very low

rhuMAb-E25: humanized anti-IgE antibody (Genentech Inc.)
effectiveness in clinical trials [13]: highly effective
